Experimental data from article PMC5578075 (International Journal of Molecular Sciences, 2017).

What follows are molecules tested against T1, acetylcholinesterase from Electrophorus electricus (electric eel) (Electrophorus electricus, UniProt O42275) (assay: biochemical). Conditions: AChA, IC50 (anti-acetylcholinesterase activity), total extracts of C. officinalis flowers; mean ± SD of five experiments.
T1 construct: purchased Sigma-Aldrich C2888
T1 sequence (O42275 24-633): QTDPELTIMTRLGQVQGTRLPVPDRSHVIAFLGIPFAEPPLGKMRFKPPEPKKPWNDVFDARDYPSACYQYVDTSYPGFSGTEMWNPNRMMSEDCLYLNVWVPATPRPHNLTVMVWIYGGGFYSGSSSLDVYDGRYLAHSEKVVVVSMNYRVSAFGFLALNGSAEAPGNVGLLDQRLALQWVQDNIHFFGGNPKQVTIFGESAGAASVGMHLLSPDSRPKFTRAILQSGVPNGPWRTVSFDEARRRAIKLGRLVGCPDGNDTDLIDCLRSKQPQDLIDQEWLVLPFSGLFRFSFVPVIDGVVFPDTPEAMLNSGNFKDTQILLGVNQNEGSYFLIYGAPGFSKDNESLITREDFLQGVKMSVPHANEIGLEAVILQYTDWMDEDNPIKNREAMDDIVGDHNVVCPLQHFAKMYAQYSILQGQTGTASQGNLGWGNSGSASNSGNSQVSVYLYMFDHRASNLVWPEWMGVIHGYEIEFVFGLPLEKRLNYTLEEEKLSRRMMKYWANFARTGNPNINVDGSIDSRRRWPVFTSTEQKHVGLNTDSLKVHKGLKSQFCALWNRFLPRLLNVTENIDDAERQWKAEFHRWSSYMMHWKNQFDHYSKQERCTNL
Procedure: For the further detailed studies, samples of the individual flavonoids previously isolated from C. officinalis flowers were used. The acetylcholinesterase inhibition assay was performed using a spectrophotometric method. […] Additionally minor flavonoids of C. officinalis flowers were included for analysis such as 3-O-(2′′-acetyl)-glucosides, 3-O-(2′′,6′′-di-acetyl)-glucosides, 3-O-(3′′-rhamnosyl)-glucosides, 3-O-(4′′-rhamnosyl)-glucosides and 3-O-rhamnosides (Figure 3).
The acetylcholinesterase inhibition assay was performed using a spectrophotometric microplate assay. The reaction mixture consisted of 235.7 µL of 0.1 M phosphate buffer pH 7.4, 20 µL of a solution of acetylcholinesterase (final concentration 0.1 U/mL in 0.1 M phosphate buffer pH 7.4), 2.7 µL of test compound or plant extract solutions in dimethyl sulfoxide (DMSO). The controls contained the corresponding volume of DMSO of test compound solutions. The enzymatic reaction was initiated by the addition of 1.6 µL of α-naphthyl acetate solution in DMSO. After mixing for 90 s and incubation at 25 °C for 90 s, the reaction was stopped with 20 µL of a 5% solution of sodium dodecyl sulfate (SDS) in water. The color was developed with 20 µL of Fast Blue B salt solution (final concentration 0.17 mM in water). The method was realized in 96-well plates. The microplate was read by a Bio-Rad microplate reader Model 3550 UV. Enzyme activity and inhibition were quantified by determination of the absorbance at 600 nm after the formation of the purple-colored diazonium dye as a percentage. […] The percentage of inhibition was calculated relative to a control sample, for which the anti-acetylcholinesterase activity was assessed under identical conditions, but in the absence of the test compound, using the expression:% Inhibition = {[(ACE − AC) − (ATE − AT)]/(ACE − AC)} × 100% where ACE is the absorbance at 600 nm of the control sample with enzyme; AC is the absorbance at 600 nm of the control sample without enzyme; ATE is the absorbance at 600 nm of the test compound (or plant extract) with enzyme; AT is the absorbance at 600 nm of the test compound (or plant extract) without enzyme.
In the case of `CN(C)C(=O)Oc1cccc([N+](C)(C)C)c1` [neostigmine, neostigmine bromide, reference compound], the IC50 is reported as 3.36 µM.

Same assay, conditions: Anti-acetylcholinesterase activity, IC50, individual flavonoids; mean ± SD of three experiments
`COc1cc(-c2oc3cc(O)cc(O)c3c(=O)c2O)ccc1O` [Isorhamnetin, 3,5,7,4′-tetrahydroxy-3′-methoxyflavone] was tested, and the IC50 was 24.2 ± 0.74 µM.
`C[C@@H]1O[C@@H](OC[C@H]2O[C@@H](Oc3c(-c4ccc(O)c(O)c4)oc4cc(O)cc(O)c4c3=O)[C@H](O)[C@@H](O)[C@@H]2O)[C@H](O)[C@H](O)[C@H]1O` [Quercetin 3-O-(6″-Rhap)-Glcp, quercetin-3-O-rutinoside] showed an IC50 of 72.1 ± 2.04 µM.
Molecule `O=c1c(O[C@@H]2O[C@H](CO)[C@@H](O)[C@H](O)[C@H]2O)c(-c2ccc(O)c(O)c2)oc2cc(O)cc(O)c12` [Quercetin 3-O-Glcp, quercetin-3-O-glucoside] has an IC50 of 70.1 ± 1.82 µM.
With `CC1OC(Oc2c(-c3ccc(O)c(O)c3)oc3cc(O)cc(O)c3c2=O)C(O)C(O)C1O` (stereo not shown) [Quercetin 3-O-Rhap, quercetin-3-O-rhamnoside] the IC50 was 48.8 ± 1.26 µM.
`CN(C)C(=O)Oc1cccc([N+](C)(C)C)c1` [neostigmine, neostigmine bromide, reference compound] showed an IC50 of 3.37 µM.

Same assay, conditions: individual flavonoids; mean ± SD of three experiments; read-out: Anti-acetylcholinesterase activity, IC50
`COc1cc(-c2oc3cc(O)cc(O)c3c(=O)c2OC2OC(COC(C)=O)C(O)C(O)C2OC(C)=O)ccc1O` (stereo not shown) [Isorhamnetin 3-O-(2″,6″-di-Ac)-Glcp, isorhamnetin-3-O-(2′′,6′′-di-acetyl)-glucoside] showed an IC50 of 51.3 ± 1.53 µM.
For `COc1cc(-c2oc3cc(O)cc(O)c3c(=O)c2OC2OC(COC3OC(C)C(O)C(O)C3O)C(O)C(O)C2OC2OC(C)C(O)C(O)C2O)ccc1O` (stereo not shown) [Isorhamnetin 3-O-(2″,6″-di-Rhap)-Glcp, isorhamnetin-3-O-(2′′,6′′-di-rhamnosyl)-glucoside], the IC50 was 98.5 ± 3.04 µM.
`COc1cc(-c2oc3cc(O)cc(O)c3c(=O)c2OC2OC(CO)C(O)C(O)C2OC(C)=O)ccc1O` (stereo not shown) [Isorhamnetin 3-O-(2″-Ac)-Glcp, isorhamnetin-3-O-(2′′-acetyl)-glucoside] was tested, and the IC50 was 70.9 ± 1.84 µM.
Molecule `COc1cc(-c2oc3cc(O)cc(O)c3c(=O)c2OC2OC(CO)C(O)C(O)C2OC2OC(C)C(O)C(O)C2O)ccc1O` (stereo not shown) [Isorhamnetin 3-O-(2″-Rhap)-Glcp, isorhamnetin-3-O-(2′′-rhamnosyl)-glucoside] has an IC50 of 94.3 ± 2.82 µM.
`COc1cc(-c2oc3cc(O)cc(O)c3c(=O)c2OC2OC(CO)C(O)C(OC3OC(C)C(O)C(O)C3O)C2O)ccc1O` (stereo not shown) [Isorhamnetin 3-O-(3″-Rhap)-Glcp, isorhamnetin-3-O-(3′′-rhamnosyl)-glucoside] gave an IC50 of 91.2 ± 2.73 µM.
With `COc1cc(-c2oc3cc(O)cc(O)c3c(=O)c2OC2OC(CO)C(OC3OC(C)C(O)C(O)C3O)C(O)C2O)ccc1O` (stereo not shown) [Isorhamnetin 3-O-(4″-Rhap)-Glcp, isorhamnetin-3-O-(4′′-rhamnosyl)-glucoside] the IC50 was 92.1 ± 2.85 µM.
`COc1cc(-c2oc3cc(O)cc(O)c3c(=O)c2OC2OC(COC(C)=O)C(O)C(O)C2O)ccc1O` (stereo not shown) [Isorhamnetin 3-O-(6″-Ac)-Glcp, isorhamnetin-3-O-(6′′-acetyl)-glucoside] showed an IC50 of 68.2 ± 1.71 µM.
In the case of `COc1cc(-c2oc3cc(O)cc(O)c3c(=O)c2O[C@@H]2O[C@H](CO[C@@H]3O[C@@H](C)[C@H](O)[C@@H](O)[C@H]3O)[C@@H](O)[C@H](O)[C@H]2O)ccc1O` [Isorhamnetin 3-O-(6″-Rhap)-Glcp, isorhamnetin-3-O-rutinoside], the IC50 is reported as 97.3 ± 2.91 µM.
Molecule `COc1cc(-c2oc3cc(O)cc(O)c3c(=O)c2OC2OC(CO)C(O)C(O)C2O)ccc1O` (stereo not shown) [Isorhamnetin 3-O-Glcp, isorhamnetin-3-O-glucoside] has an IC50 of 89 ± 2.49 µM.
With `COc1cc(-c2oc3cc(O)cc(O)c3c(=O)c2OC2OC(C)C(O)C(O)C2O)ccc1O` (stereo not shown) [Isorhamnetin 3-O-Rhap, isorhamnetin-3-O-rhamnoside] the IC50 was 74 ± 2.14 µM.
`CC(=O)OCC1OC(Oc2c(-c3ccc(O)c(O)c3)oc3cc(O)cc(O)c3c2=O)C(OC(C)=O)C(O)C1O` (stereo not shown) [Quercetin 3-O-(2″,6″-di-Ac)-Glcp, quercetin-3-O-(2′′,6′′-di-acetyl)-glucoside] gave an IC50 of 36.5 ± 1.02 µM.
Work on `CC1OC(OCC2OC(Oc3c(-c4ccc(O)c(O)c4)oc4cc(O)cc(O)c4c3=O)C(OC3OC(C)C(O)C(O)C3O)C(O)C2O)C(O)C(O)C1O` (stereo not shown) [Quercetin 3-O-(2″,6″-di-Rhap)-Glcp, quercetin-3-O-(2′′,6′′-di-rhamnosyl)-glucoside] yielded an IC50 of 94.9 ± 2.65 µM.
`CC(=O)OC1C(Oc2c(-c3ccc(O)c(O)c3)oc3cc(O)cc(O)c3c2=O)OC(CO)C(O)C1O` (stereo not shown) [Quercetin 3-O-(2″-Ac)-Glcp, quercetin-3-O-(2′′-acetyl)-glucoside] showed an IC50 of 48 ± 1.2 µM.
`CC1OC(OC2C(Oc3c(-c4ccc(O)c(O)c4)oc4cc(O)cc(O)c4c3=O)OC(CO)C(O)C2O)C(O)C(O)C1O` (stereo not shown) [Quercetin 3-O-(2″-Rhap)-Glcp, quercetin-3-O-(2′′-rhamnosyl)-glucoside] was tested, and the IC50 was 71.9 ± 1.94 µM.
For `CC1OC(OC2C(Oc3c(-c4ccc(O)c(O)c4)oc4cc(O)cc(O)c4c3=O)OC(C)C(O)C(O)C2O)C(O)C(O)C1O` (stereo not shown) [Quercetin 3-O-(2″-Rhap)-Rhap, quercetin-3-O-(2′′-rhamnosyl)-rhamnoside], the IC50 was 67.9 ± 1.76 µM.
`CC1OC(OC2C(O)C(CO)OC(Oc3c(-c4ccc(O)c(O)c4)oc4cc(O)cc(O)c4c3=O)C2O)C(O)C(O)C1O` (stereo not shown) [Quercetin 3-O-(3″-Rhap)-Glcp, quercetin-3-O-(3′′-rhamnosyl)-glucoside] showed an IC50 of 69.1 ± 1.84 µM.
`CC1OC(OC2C(CO)OC(Oc3c(-c4ccc(O)c(O)c4)oc4cc(O)cc(O)c4c3=O)C(O)C2O)C(O)C(O)C1O` (stereo not shown) [Quercetin 3-O-(4″-Rhap)-Glcp, quercetin-3-O-(4′′-rhamnosyl)-glucoside] was tested, and the IC50 was 70.3 ± 1.9 µM.
Work on `CC(=O)OCC1OC(Oc2c(-c3ccc(O)c(O)c3)oc3cc(O)cc(O)c3c2=O)C(O)C(O)C1O` (stereo not shown) [Quercetin 3-O-(6″-Ac)-Glcp, quercetin-3-O-(6′′-acetyl)-glucoside] yielded an IC50 of 45.2 ± 1.12 µM.

Same assay, conditions: negative control
`[Cl-].[Na+]` [NaCl, reference compound] was tested, and the “Anti-acetylcholinesterase activity of the negative control, in words” value was “inactive”.
